From patent publication US20230365488A1, “TRUXILLIC ACID MONOESTER-DERIVATIVES AS SELECTIVE FABP5 INHIBITORS AND PHARMACEUTICAL COMPOSITIONS AND USES THEREOF” (The Research Foundation for The State University of New York, priority 2020, published 2023) come the findings set out here.

Experiment [1] has as its system PC-3 (human metastatic prostate cancer) cells. The experiment can be described thus: Cytotoxicity (MTT) assay, PC-3 (Example 5). The class given is cell-based. To be noted: 72-hour incubation, 1% FBS, read-out: PC3 IC50.
The target of experiment [2] is FABP5 (Homo sapiens (Human), UniProt Q01469). In words: FABP5 fluorescent probe displacement binding assay. To be noted: for Ki: average ± S.E. of at least three independent experiments; for FABP3 Ki/FABP5 Ki: selectivity ratio FABP3 over FABP5.
Chain of FABP5 (Q01469 whole entry): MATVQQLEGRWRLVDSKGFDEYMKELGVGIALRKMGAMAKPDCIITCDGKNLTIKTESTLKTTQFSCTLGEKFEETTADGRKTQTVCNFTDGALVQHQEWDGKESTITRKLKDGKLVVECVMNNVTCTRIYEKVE
The test system of experiment [3] is HepG2 (human liver cancer) cells. The experiment can be described thus: Cytotoxicity (MTT) assay, HepG2 (Example 5). The class given is cell-based. To be noted: 72-hour incubation, 1% FBS.
The target of experiment [4] is FABP7 (Homo sapiens (Human), UniProt O15540). The experiment can be described thus: FABP7 fluorescent probe displacement binding assay. To be noted: average ± S.E. of at least three independent experiments.
Chain of FABP7 (O15540 whole entry): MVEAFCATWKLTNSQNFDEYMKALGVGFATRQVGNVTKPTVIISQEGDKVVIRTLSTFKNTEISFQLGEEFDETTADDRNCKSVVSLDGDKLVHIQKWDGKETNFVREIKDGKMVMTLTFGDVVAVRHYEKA
Experiment [5] deals with WI-38 (human normal lung fibroblast) cells. In words: Cytotoxicity (MTT) assay, WI-38 (Example 5). The settings on record: 72-hour incubation, 1% FBS. The class given is cell-based.
In experiment [6] the target is FABP3 (Homo sapiens (Human), UniProt P05413). The experiment can be described thus: FABP3 fluorescent probe displacement binding assay. To be noted: average ± S.E. of at least three independent experiments.
Chain of FABP3 (P05413 whole entry): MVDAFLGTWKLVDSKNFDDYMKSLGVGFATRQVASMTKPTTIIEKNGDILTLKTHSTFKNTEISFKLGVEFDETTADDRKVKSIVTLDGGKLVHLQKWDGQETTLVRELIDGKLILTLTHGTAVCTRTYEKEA
For experiment [7], the system named is PC3 cells implanted subcutaneously. In words: Subcutaneous PC3 tumor growth in nude mice. To be noted: 10 mg/kg, ip, once weekly. The class given is in vivo, male BALB/c nude mice.

Take `COc1ccccc1C1[C@@H](C(=O)O)[C@@H](c2ccccc2OC)[C@@H]1C(=O)Oc1cccc(-c2ccc(F)cc2)c1` (mixture of isomers) [Compound 1e, (±)-α-2,4-di (2-methoxyphenyl)-3-[3-(4-fluorophenyl)phenoxycarbonyl]cyclobutane-1-carboxylic acid]: the values for the half-inhibitory concentration (IC50) in experiment [1], in experiment [3] and in experiment [5] were 6.79 µM, 9.41 µM and 27.3 µM, respectively. Besides, the inhibition constant Ki (as a rule, a dissociation constant, usually derived from enzyme kinetics or from competition with a known ligand) is 1.03 ± 0.11 µM in experiment [2], 0.99 ± 0.53 µM in experiment [4] and 2.28 ± 0.36 µM in experiment [6]. Besides, the “FABP3 Ki/FABP5 Ki” value in experiment [2] was found to be 2.2.
`COc1ccccc1C1[C@@H](C(=O)O)[C@@H](c2ccccc2OC)[C@@H]1C(=O)Oc1cccc(-c2cccc3c2OCCO3)c1` (mixture of isomers) [Compound 1g, (±)-α-3-[3-(2,3-dihydrobenzo[b][1,4]dioxin-5-yl)phenoxycarbonyl]-2,4-di(2-methoxyphanyl)cyclobutane-1-carboxylic acid]: the figures for the half-maximal inhibitory concentration (IC50) in experiment [1], in experiment [3] and in experiment [5] were 4.53 µM, 8.87 µM and 49.8 µM, respectively. For the same compound, the Ki came to 0.41 ± 0.15 µM in experiment [2], 0.91 ± 0.03 µM in experiment [4] and 4.02 ± 1.04 µM in experiment [6]. Further, the “FABP3 Ki/FABP5 Ki” value in experiment [2] is given as 9.8.
For `O=C1CCc2cc(-c3cccc(OC(=O)[C@@H]4C(c5ccccc5)[C@@H](C(=O)O)[C@H]4c4ccccc4)c3)ccc2N1` (mixture of isomers) [Compound 1h, (±)-α-2,4-diphenyl-3-[3-(2-oxo-1,2,3,4-tetrahydroquinolin-6-yl)phenoxycarbonyl]cyclobutane-1-carboxylic acid], the IC50 (in general, the concentration at which inhibition is half-maximal) in experiment [1] worked out at 4.93 µM; in experiment [3], 7.89 µM; in experiment [5] it was 24 µM. Besides, the inhibition constant Ki was 0.74 ± 0.06 µM in experiment [2], 0.7 ± 0.03 µM in experiment [4] and 8.11 ± 1.67 µM in experiment [6]. In addition, the “FABP3 Ki/FABP5 Ki” value in experiment [2] stood at 10.9.
For the compound `COc1ccccc1C1[C@@H](C(=O)O)[C@@H](c2ccccc2OC)[C@@H]1C(=O)Oc1cccc(-c2ccc3c(c2)OCCO3)c1` (mixture of isomers) [Compound 1m], the 50% inhibitory concentration (IC50) was determined as 7.25 µM in experiment [1], 11.2 µM in experiment [3] and 49.5 µM in experiment [5]. The Ki in experiment [2] stood at 1.56 ± 0.19 µM; in experiment [4], 2.25 ± 0.13 µM; in experiment [6] it was 2.79 ± 0.85 µM. Further, the “FABP3 Ki/FABP5 Ki” value in experiment [2] was 1.8.
For the compound `COc1ccccc1[C@@H]1C(C(=O)O)[C@@H](c2ccccc2OC)C1C(=O)Oc1ccccc1-c1ccc2c(c1)OCO2` (mixture of isomers) [Compound 1n, (±)-α-3-[2-(bnzo[d][1,3]dioxol-5-yl)phenoxycarbonyl]-2,4-di (2-methoxyphenyl)cyclobutane-1-carboxylic acid], the IC50 came to 20.7 µM in experiment [1], 23.5 µM in experiment [3] and 59.4 µM in experiment [5]. Besides, the Ki in experiment [2] is 1.59 ± 0.11 µM; in experiment [4], 0.26 ± 0.09 µM; in experiment [6], 1.28 ± 0.28 µM. Besides, the “FABP3 Ki/FABP5 Ki” value in experiment [2] turned out to be 0.8.
Take `COc1ccccc1[C@H]1[C@H](C(=O)O)[C@H](c2ccccc2OC)[C@H]1C(=O)Oc1ccccc1-c1ccccc1` (racemic) [Compound 1o, (±)-α-3-(1,1′-biphenyl-2-yloxycarbonyl)-2,4-di (2-methoxyphenyl)cyclobutane-1-carboxylic acid]: the IC50 in experiment [1] is 8.69 µM; in experiment [3] it was 9.43 µM; in experiment [5], greater than 100 µM. Also, the Ki is 1.59 ± 0.24 µM in experiment [2], 1.36 ± 0.23 µM in experiment [4] and 0.21 ± 0.09 µM in experiment [6]. The “FABP3 Ki/FABP5 Ki” value in experiment [2] turned out to be 0.13.
As to `COc1ccccc1[C@H]1[C@H](C(=O)O)[C@H](c2ccccc2OC)[C@H]1C(=O)OCc1cccc2ccccc12` (racemic) [Compound 1q, (±)-α-2,4-bis(2-methoxyphenyl)-3-(naphthalen-1-ylmethoxycarbonyl)cyclobutane-1-carboxylic acid], the half-inhibitory concentration (IC50) amounted to 11.3 µM in experiment [1], 12.4 µM in experiment [3] and 20.3 µM in experiment [5]. For the same compound, the inhibition constant (Ki) was 2.15 ± 0.17 µM in experiment [2], 8.04 ± 0.71 µM in experiment [4] and 52.6 ± 8.62 µM in experiment [6]. For the same compound, the “FABP3 Ki/FABP5 Ki” value in experiment [2] is 24.5.
On to `COc1ccccc1[C@H]1[C@H](C(=O)O)[C@H](c2ccccc2OC)[C@@H]1C(=O)Oc1cccc(-c2cccc3c2OCCO3)c1` (racemic) [Compound 2c, (±)-γ-3-((3-(2,3-dihydrobenzo[b][1, 4]dioxin-5-yl)phenoxy)carbonyl)-2,4-di(2-methoxyphenyl)cyclobutane-1-carboxylic acid], for which the IC50 in experiment [1] is 10.1 µM; in experiment [3] it was 16.4 µM; in experiment [5] it was 52.1 µM. Besides, the Ki in experiment [2] was 1.26 ± 0.12 µM; in experiment [4], 1.78 ± 0.45 µM; in experiment [6], 6.86 ± 0.07 µM. The “FABP3 Ki/FABP5 Ki” value in experiment [2] is recorded as 5.4.
Turning to `O=C(O)[C@@H]1C(c2ccccc2)[C@H](C(=O)OCc2ccccc2-c2ccccc2)[C@H]1c1ccccc1` (mixture of isomers) [Compound 3c, (±) -ε-3-(1,1′-biphenyl-2-ylmethoxycarbonyl)-2,4-diphenylcyclobutane-1-carboxylic acid], the IC50 in experiment [1] is 15 µM; in experiment [3] it was 13.8 µM; in experiment [5], 22.2 µM. The Ki in experiment [2] came out at 1.65 ± 0.22 µM; in experiment [4] it was 0.68 ± 0.16 µM; in experiment [6] it was 3.4 ± 0.54 µM. In addition, the “FABP3 Ki/FABP5 Ki” value in experiment [2] turned out to be 2.1.
As for `O=C(O)[C@@H]1[C@@H](c2ccccc2)[C@H](C(=O)OCc2cccc3ccccc23)[C@H]1c1ccccc1` [Compound 3f, ε-2,4-diphenyl-3-(napthylen1-yl)methoxycarbonylcyclobutane-1-carboxylic acid], the figures for the IC50 in experiment [1], in experiment [3] and in experiment [5] were 0.95 µM, 1.26 µM and 1.6 µM, respectively. Besides, the Ki in experiment [2] worked out at 5.08 ± 0.62 µM; in experiment [4], 0.86 ± 0.04 µM; in experiment [6] it was 7.42 ± 1.38 µM. Moreover, in experiment [2], the “FABP3 Ki/FABP5 Ki” value was found to be 1.5.
As for `O=C(O)[C@@H]1[C@@H](c2ccccc2)[C@H](C(=O)Oc2cccc3ccccc23)[C@H]1c1ccccc1` [Compound 3g], the IC50 came to 10.6 µM in experiment [1], 36.9 µM in experiment [3] and 54.2 µM in experiment [5]. Also, the results for the inhibitory constant (Ki) in experiment [4] and in experiment [6] were 0.38 ± 0.08 µM and 0.32 ± 0.03 µM, respectively.
`CC(=O)O[C@@]12CO[C@@H]1C[C@H](O)[C@@]1(C)C(=O)[C@H](O)C3=C(C)[C@@H](OC(=O)[C@H](O)[C@@H](NC(=O)OC(C)(C)C)c4ccccc4)C[C@@](O)([C@@H](OC(=O)c4ccccc4)[C@H]21)C3(C)C` [docetaxel, reference compound]: the tumor growth entry in experiment [7] is “near complete inhibition of growth”.
